Source: US5057512A, “3-amino-2-oxo-azetidine-1-sulfonic acids” (Uclaf; Roussel, priority 1981, dated 1991)

Assays:
Assay in all cases: M.I.C., dilutions in liquid medium
Assay type in all cases: cell-based
[1] = test system: Salmonella typhimurium 420; settings: Salmonella enterica, 37° C.
Protocol: (§1) A. Activity in Vitro-Method of Dilutions in Liquid Medium
(§2) A series of tubes was prepared in which the same amount of sterile nutritive medium was distributed and there was distributed in each tube increasing amounts of the test product. Then, each tube was inoculated with a bacterial strain and after incubation for twenty-four or forty-eight hours in an oven at 37° C., the inhibition of the growth was evaluated by trans-illumination to determine the minimum inhibiting concentrations (M.I.C.), expressed in μg/ml.

Enterobacter Cloacae 681 = settings: 37° C.
Protocol: as §1, §2

Providencia Du 48 = settings: Providencia, DU48, 37° C.
Protocol: as §1, §2

[2] = test system: Klebsiella Pneumoniae 2536 Resistant Gentamycine; settings: 37° C.
Protocol: as §1, §2

[3] = test system: Klebsiella Pneumoniae Exp. 52145; settings: Klebsiella pneumoniae, 37° C.
Protocol: as §1, §2

[4] = test system: Proteus vulgaris (indol +) A 232; settings: Proteus vulgaris, 37° C.
Protocol: as §1, §2

[5] = test system: Proteus mirabilis (indol -) A 235; settings: Proteus mirabilis, 37° C.
Protocol: as §1, §2

[6] = test system: Escherichia Coli Resistant to Gentamycine Tobramycine R55 123 D; settings: 37° C.
Protocol: as §1, §2

[7] = test system: Serratia Resistant to Gentamycine 2 532; settings: Serratia, 37° C.
Protocol: as §1, §2

[8] = test system: Escherichia Coli Sensitive to Tetracycline 7624; settings: 37° C.
Protocol: as §1, §2

[9] = test system: Escherichia Coli Resistant to Tetracycline AT CC 11 303; settings: 37° C.
Protocol: as §1, §2

| MIC ([1]; 24 Hr.) [µg/mL] | MIC ([1]; 48 Hr.) [µg/mL] | MIC (Providencia Du 48; 24 Hr.) [µg/mL] | MIC (Providencia Du 48; 48 Hr.) [µg/mL] | MIC ([2]; 24 Hr.) [µg/mL] | MIC ([2]; 48 Hr.) [µg/mL] | MIC ([3]; 24 h) [µg/mL] | MIC ([3]; 48 h) [µg/mL] | MIC ([4]; 24 Hr.) [µg/mL] | MIC ([4]; 48 Hr.) [µg/mL] | MIC ([5]; 24 h) [µg/mL] | MIC ([5]; 48 h) [µg/mL] | MIC ([6]; 24 Hr.) [µg/mL] | MIC ([6]; 48 Hr.) [µg/mL] | MIC ([7]; 24 h) [µg/mL] | MIC ([7]; 48 h) [µg/mL] | MIC ([8]; 24 Hr.) [µg/mL] | MIC ([8]; 48 Hr.) [µg/mL] | MIC ([9]; 24 Hr.) [µg/mL] | MIC ([9]; 48 Hr.) [µg/mL] | SMILES | other results |
| --- | --- | --- | --- | --- | --- | --- | --- | --- | --- | --- | --- | --- | --- | --- | --- | --- | --- | --- | --- | --- | --- |
| 1.25 | 1.25 | 0.62 | 0.62 | 2.5 | 2.5 | 1.25 | 2.5 | 0.08 | 0.08 | 0.16 | 0.16 | 0.62 | 0.62 | 5 | 5 | 1.25 | 1.25 | 0.16 | 0.16 | CON=C(C(=O)NC1C(=O)N(S(=O)(=O)O)C1CCl)c1csc(N)n1 (mixture of isomers) [Example 1, Racemate of syn isomer of cis 4-chloromethyl-3-[2-(2-amino-4-thiazolyl)-2-methoxyimino-acetamido]-2-oxoazetidine-1-sulfonic acid] | MIC (Enterobacter Cloacae 681; CLOACAE681, 24 Hr.): 2.5 µg/mL; MIC (Enterobacter Cloacae 681; CLOACAE681, 48 Hr.): 2.5 µg/mL |
| 2.5 | 5 | 2.5 | 2.5 | 2.5 | 2.5 | 5 | 10 | 1.2 | 1.2 | 0.6 | 0.6 | 1.2 | 1.2 | 2.5 | 5 | 1.2 | 1.2 | 0.6 | 0.6 | NCCON=C(C(=O)NC1C(=O)N(S(=O)(=O)O)C1CCl)c1csc(N)n1 (mixture of isomers) [Example 3, Racemate of syn isomer of cis 4-chloromethyl-3[2(2-amino-4-thiazolyl)-2-(2-aminoethoxy)-imino-acetamido]-2-oxo-azetidine-1-sulfonic acid] |  |
| 1.2 | 2.5 | 0.6 | 1.2 | 2.5 | 2.5 | 5 | 5 | 0.6 | 0.6 | 0.6 | 1.2 | 0.6 | 0.6 | 5 | 5 | 0.6 | 0.6 | 0.6 | 0.6 | Nc1nc(C(=NO)C(=O)NC2C(=O)N(S(=O)(=O)O)C2CCl)cs1 (mixture of isomers) [Example 4, Racemate of syn isomer of cis 4-chloromethyl-3-[2-(2-amino-4-thiazolyl)-2-hydroxyimino-acetamido]-2-oxo-azetidine-1-sulfonic acid] |  |
